Test results published in ChEMBL document CHEMBL4739717, “Methods of treating cartilage disorders through inhibition of clk and dyrk” (2020).

Columns and labels:
[1] = Induction of chondrogenesis in human MSC assessed as maximum activity at 300 nM incubated for 6 days by rhodamine B and Nile red staining based imaging analysis relative to control; type: functional; conditions: BMMSC, 144 h, time 6 day
[2] = Effect on Wnt signaling pathway in human SW480 cells harbouring TCF/LEF luciferase reporter gene and SP5-Luc reporter gene incubated for 36 to 48 hrs by luminescence assay; type: cell-based
[3] = target: Dual specificity tyrosine-phosphorylation-regulated kinase 1A (Homo sapiens, UniProt Q13627); test: Inhibition of recombinant DYRK1A (unknown origin) using Ser/Thr 18 peptide as substrate incubated for 1 hr in presence of ATP by FRET assay
[4] = target: Dual specificity protein kinase CLK3 (Homo sapiens, UniProt P49761); test: Inhibition of recombinant CLK3 (unknown origin) using Ser/Thr 18 peptide as substrate incubated for 1 hr in presence of ATP by FRET assay
[5] = Inhibition of IL1-beta induced MMP3 expression levels in human chondrocytes assessed as MMP3 levels incubated for 2hrs followed by IL1-beta stimulation and measured after overnight incubation by LANCE assay; type: functional, cell-based; conditions: Chondrocyte
[6] = Induction of chondrogenesis in human MSC assessed as maximum activity at 10 nM incubated for 6 days by rhodamine B and Nile red staining based imaging analysis relative to control; type: functional; conditions: BMMSC, 144 h, time 6 day
[7] = Induction of chondrogenesis in human MSC assessed as incubated for 6 days by rhodamine B and Nile red staining based imaging analysis; type: functional; conditions: bmmsc
[8] = Induction of chondrogenesis in human MSC assessed as maximum activity at 100 nM incubated for 6 days by rhodamine B and Nile red staining based imaging analysis relative to control; type: functional; conditions: BMMSC, 144 h, time 6 day
[9] = Induction of chondrogenesis in human MSC assessed as maximum activity at 30 nM incubated for 6 days by rhodamine B and Nile red staining based imaging analysis relative to control; type: functional; conditions: BMMSC, 144 h, time 6 day

Dual specificity protein kinase CLK3, sequence (P49761 whole entry): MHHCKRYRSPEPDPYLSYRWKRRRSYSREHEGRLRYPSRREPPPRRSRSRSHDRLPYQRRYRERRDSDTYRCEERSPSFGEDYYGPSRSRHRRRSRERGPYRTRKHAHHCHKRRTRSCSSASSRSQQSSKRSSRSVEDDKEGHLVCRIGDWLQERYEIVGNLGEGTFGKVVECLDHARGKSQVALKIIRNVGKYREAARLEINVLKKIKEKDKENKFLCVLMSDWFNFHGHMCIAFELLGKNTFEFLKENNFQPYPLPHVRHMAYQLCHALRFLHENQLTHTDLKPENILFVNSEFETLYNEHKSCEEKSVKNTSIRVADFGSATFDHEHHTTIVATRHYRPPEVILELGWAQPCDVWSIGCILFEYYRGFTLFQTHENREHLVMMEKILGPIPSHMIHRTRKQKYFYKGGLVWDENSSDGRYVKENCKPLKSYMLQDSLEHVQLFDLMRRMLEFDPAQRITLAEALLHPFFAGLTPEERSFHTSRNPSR

Structure (SMILES)	EC50 [2] [nM]	EC50 [3] [nM]	EC50 [4] [nM]	EC50 [5] [nM]	EC50 [7] [nM]	Emax at 0.3 µM [1] [%]	Emax at 0.01 µM [6] [%]	Emax at 0.1 µM [8] [%]	Emax at 0.03 µM [9] [%]
CC(F)(F)CN1CCC(C(=O)Nc2cc3cc(-c4cnco4)cnc3cn2)CC1	> 10000	–	> 10000	3000	–	–	–	–	–
CC(C)Nc1cncc(-c2cnc3[nH]nc(-c4cc5c(-c6ccccc6F)ccnc5[nH]4)c3c2)c1	> 10000	35	> 10000	–	10	–	81.6	–	–
CC(C)N1CCC(c2nc(C(=O)Nc3cc4cc(-c5cnn(C)c5)ccc4cn3)co2)CC1	80	–	20	57.3	–	–	–	–	–
Nc1cncc(-c2cnc3[nH]nc(-c4cc5c(-c6ccncc6)ccnc5[nH]4)c3c2)c1	> 10000	19	> 10000	–	–	–	–	–	–
c1cc(-c2ccnc3[nH]c(-c4n[nH]c5ccc(-c6cncc(CNCC7CCCC7)c6)nc45)cc23)ccn1	> 10000	40	> 10000	–	100	–	–	67.2	–
CN1CC2CCC(C1)N2C(=O)Nc1cc2cc(-c3cnn(C)c3)ccc2cn1	> 10000	–	> 10000	–	–	–	–	–	–
CN(C)c1cncc(-c2cnc3[nH]nc(-c4cc5c(-c6ccncc6)cncc5[nH]4)c3c2)c1	> 10000	14	> 10000	–	10	–	–	–	191
O=C(Nc1cc2cc(-c3cncs3)ccc2cn1)C1(F)CCCCC1	> 10000	8	> 10000	3000	–	–	–	–	–
COc1cccc(-c2cncc3[nH]c(-c4n[nH]c5ccc(-c6cncc(NC(=O)C7CCCCC7)c6)nc45)nc23)c1	> 10000	> 10000	> 10000	3000	–	–	–	–	–
O=C(Cc1ccccc1)Nc1cncc(-c2ccc3[nH]nc(-c4nc5c(-c6ccncc6)ccnc5[nH]4)c3n2)c1	> 10000	> 10000	> 10000	–	–	–	–	–	–
CN(C)CCNc1cc(F)cc(-c2cccc3[nH]c(-c4n[nH]c5ncc(-c6ccncc6)cc45)cc23)c1	6070	> 10000	> 10000	4	–	–	–	–	–
O=C(Nc1cc2cc(-c3cnco3)cnc2cn1)[C@H]1CC[C@H](CO)CC1	> 10000	–	> 10000	–	–	–	–	–	–
O=C(Nc1ccc(OCCN2CCCC2)nc1)c1n[nH]cc1C#Cc1cccnc1	409	24	> 10000	–	–	–	–	–	68.8
O=C(Nc1cncc(-c2cc3c(-c4cc5c(-c6cccc(F)c6)ccnc5[nH]4)n[nH]c3cn2)c1)C1CC1	9.7	> 10000	> 10000	298	–	–	–	–	–
O=C(Nc1cncc(-c2cnc3[nH]nc(-c4cc5cccnc5[nH]4)c3c2)c1)c1ccccc1	> 10000	14	> 10000	–	–	–	21.8	–	–
COc1cccc(-c2cncc3[nH]c(-c4n[nH]c5ccc(-c6cn[nH]c6)nc45)nc23)c1	> 10000	> 10000	> 10000	–	–	–	–	–	–
CN(C)CCNc1cc(F)cc(-c2cncc3[nH]c(-c4n[nH]c5ncc(-c6cccnc6)cc45)nc23)c1	21	5	–	–	300	129	–	–	–
CC(C)C(=O)Nc1cncc(-c2ccc3[nH]nc(-c4nc5c(-c6ccccc6F)cncc5[nH]4)c3n2)c1	> 10000	30	–	–	10	181	–	–	–
c1cc(-c2ccnc3[nH]c(-c4n[nH]c5ccc(-c6cncnc6)cc45)cc23)ccn1	> 10000	68	> 10000	–	–	–	–	17.3	–
Nc1cncc(-c2cc3c(-c4cc5c(-c6ccccc6F)nccc5[nH]4)n[nH]c3cn2)c1	224	5	–	–	10	117	–	–	–
CC(C)(C)CC(=O)Nc1cncc(-c2ccc3[nH]nc(-c4nc5ccncc5[nH]4)c3c2)c1	21	3	–	–	100	152	–	–	–
CCC(=O)Nc1cncc(-c2cnc3[nH]nc(-c4nc5c(-c6ccc(F)cc6)cncc5[nH]4)c3c2)c1	11	11	–	–	300	143	–	–	–
Cc1ccncc1-c1ccc2[nH]nc(-c3cc4ccncc4[nH]3)c2c1	191	21	–	–	300	161	–	–	–
O=C(Cc1ccccc1)Nc1cncc(-c2ccc3[nH]nc(-c4cc5cnccc5[nH]4)c3c2)c1	1760	8	180	–	10	–	119	–	–
O=C(Nc1c[nH]nc1C(=O)Nc1cncc(-c2cccc(F)c2)c1)c1cncc(F)c1	479	63	> 10000	0.4	–	–	–	81.5	–

Now from value to compound, other results behind:

EC50 [2] [nM]	EC50 [3] [nM]	EC50 [4] [nM]	EC50 [5] [nM]	EC50 [7] [nM]	Structure (SMILES)	Emax at 0.3 µM [1] [%]	Emax at 0.01 µM [6] [%]	Emax at 0.1 µM [8] [%]	Emax at 0.03 µM [9] [%]
> 10000	28	> 10000	–	–	c1cc(-c2ccnc3[nH]c(-c4n[nH]c5ccc(-c6cncc(OCCN7CCCC7)c6)nc45)cc23)ccn1	39.6	–	–	–
1270	24	> 10000	0.2	–	O=C(Nc1cccnc1)c1n[nH]cc1C#Cc1cncc(OC2CCNCC2)c1	–	–	–	–
58	12	> 10000	–	100	c1cc(-c2cncc3[nH]c(-c4n[nH]c5ccc(-c6cncc(CNCC7CCCC7)c6)cc45)nc23)cs1	–	–	167	–
679	22	> 10000	8.7	–	O=C(Nc1cccnc1)Nc1c[nH]nc1C(=O)Nc1ccc(C(F)(F)F)nc1	–	–	–	–
> 10000	6	460	–	100	CCCC(=O)Nc1cncc(-c2ccc3[nH]nc(-c4cc5c(-c6ccncc6)cncc5[nH]4)c3c2)c1	–	–	124	–
–	–	30	1010	–	CN(C)CCOc1cc(C(=O)Nc2cc3cc(-c4cnn(C)c4)ccc3cn2)ccn1	–	–	–	–
> 10000	3	> 10000	–	10	Nc1cncc(-c2cc3c(-c4cc5c(-c6ccncc6)cncc5[nH]4)n[nH]c3cn2)c1	–	–	–	52
> 10000	> 10000	> 10000	3000	–	Fc1ccc(-c2cccc3[nH]c(-c4n[nH]c5ccc(-c6cncnc6)nc45)nc23)cc1	–	–	–	–
> 10000	> 10000	> 10000	123	–	COc1cncc(-c2ccc3[nH]nc(-c4nc5c(N6CCCCC6)ccnc5[nH]4)c3n2)c1	–	–	–	–
3660	> 10000	> 10000	46.1	–	Fc1ccc(-c2cccc3[nH]c(-c4n[nH]c5ncc(-c6cncc(CN7CCCCC7)c6)cc45)cc23)cc1	–	–	–	–
> 10000	49	> 10000	–	300	CN1CCN(c2ccnc3[nH]c(-c4n[nH]c5ccc(-c6cn[nH]c6)nc45)cc23)CC1	60.1	–	–	–
2220	10	–	280	–	O=C(Nc1c[nH]nc1C(=O)Nc1ccc(N2CCC(F)(F)C2)nc1)c1cncc(OC2CCNCC2)c1	75.2	–	–	–
104	11	370	–	100	FC1(F)CCN(Cc2cncc(-c3ccc4[nH]nc(-c5cc6cccnc6[nH]5)c4n3)c2)C1	–	–	–	134
6100	29	258	–	10	CN1CCN(c2ccnc3[nH]c(-c4n[nH]c5ccc(-c6cncc(NC(=O)c7ccccc7)c6)nc45)cc23)CC1	–	61.8	–	–
2440	60	3380	3000	–	Cc1n[nH]c2cc(F)c(-c3cncc(CN4CCCCC4)n3)cc12	–	–	–	–
580	3	–	–	10	O=C(Nc1cncc(-c2cc3c(-c4cc5cnccc5[nH]4)n[nH]c3cn2)c1)c1ccccc1	152	–	–	–
146	2	–	–	100	Nc1cncc(-c2ccc3[nH]nc(-c4cc5c(-c6cccnc6)nccc5[nH]4)c3c2)c1	178	–	–	–
> 10000	> 10000	> 10000	3000	–	Fc1cccc(-c2cncc3[nH]c(-c4n[nH]c5ccc(-c6cnccn6)nc45)nc23)c1	–	–	–	–
3260	30	–	–	100	Fc1ccc(-c2cncc3[nH]c(-c4n[nH]c5cnc(-c6cncc(CN7CCC(F)(F)C7)c6)cc45)cc23)cc1	78.4	–	–	–
> 10000	42	> 10000	–	–	Nc1cncc(-c2cc3c(-c4cc5c(-c6ccccc6F)ccnc5[nH]4)n[nH]c3cn2)c1	–	32.4	–	–
> 10000	3	–	–	30	CCC(=O)Nc1cncc(-c2cc3c(-c4cc5c(N6CCN(C)CC6)nccc5[nH]4)n[nH]c3cn2)c1	70	–	–	–
35.4	11	–	–	300	O=C(Nc1cncc(-c2cnc3[nH]nc(-c4nc5c(-c6cccnc6)cncc5[nH]4)c3c2)c1)C1CCC1	130	–	–	–
> 10000	11	> 10000	–	–	COc1cncc(C#Cc2c[nH]nc2C(=O)Nc2ccc(N3CCNCC3)nc2)c1	–	74.7	–	–
